Test results from US20110098214A1 (priority 2005, published 2011).
Square brackets hold non-standard residues; d marks the D form. Ends that are not written are not given here. Peptide text beside a SMILES is read from it.

Key:
[1] = tested on: mouse model for endotoxemia; details: in vivo
human IL-1β (Pepro Tech) = target: T1, human IL-1β (Pepro Tech) (human, UniProt P01584 117-269); experiment: batch adsorption on peptide-immobilized silica beads, in an LPS solution (500 ng/mL LPS) containing IL-1β
T1 construct: Commercial protein added at 200 ng/mL to the LPS solution

Molecule: CC[C@H](C)[C@H](NC(=O)[C@H](CO)NC(=O)[C@H](CO)NC(=O)[C@@H](NC(=O)[C@H](CO)NC(=O)[C@H](CO)NC(=O)[C@H](CO)NC(=O)[C@H](Cc1ccc(O)cc1)NC(=O)[C@H](N)CCCCN)[C@@H](C)CC)C(=O)N[C@@H](CCCNC(=N)N)C(=O)NCC(=O)NCC(=O)N[C@@H](CC(C)C)C(=O)N[C@@H](CC(C)C)C(=O)N[C@@H](CC(C)C)C(=O)N[C@@H](CC(C)C)C(=O)N[C@@H](CC(C)C)C(=O)N[C@@H](CC(C)C)C(=O)N[C@@H](CC(C)C)C(=O)O [Wine Opener, kYSSSISSIRGGLLLLLLL] (H-[dK]YSSSISSIRGGLLLLLLL-OH; N-terminus and C-terminus assumed)
- short term toxicity (weight) [1]: no short term toxicity which affected weight

B1: peptide Li5 C (peptide)
peptide: KNYSSSISSIHAC
modifications: also: immobilized on silica beads via C-terminal Cys thiol
notes: In the assay it was immobilized on propionyl chloride functionalized silica gel beads
- binding result (human IL-1β (Pepro Tech)): no binding (tested: 200 ng/mL IL-1β)
